Assay results taken from PubChem BioAssay (NCI).
Several values for one entry are separate records, joined by “and”; a condition that tells them apart may be missing. Identical values can stand only once.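 Exposure lasted 48 hours, with cells grown in 96-well plates and compounds tested at five concentrations. Here, GI50 denotes the concentration required for 50% inhibition of growth. TGI: total growth inhibition.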

Key:
Test in all cases: NCI tumour cell line growth inhibition, 48 h
COLO 205 colon = tested on: COLO 205 colon
HL-60(TB) leukemia = tested on: HL-60(TB) leukemia
HOP-92 NSCLC = tested on: HOP-92 NSCLC
MCF7 breast = tested on: MCF7 breast
SF-268 CNS = tested on: SF-268 CNS
SK-MEL-2 melanoma = tested on: SK-MEL-2 melanoma
SK-OV-3 ovarian = tested on: SK-OV-3 ovarian
SN12C renal = tested on: SN12C renal
SNB-19 CNS = tested on: SNB-19 CNS
HCC-2998 colon = tested on: HCC-2998 colon
NCI-H23 lung = tested on: NCI-H23 lung

Compound | GI50 (COLO 205 colon) | TGI (COLO 205 colon) [µM] | GI50 (HL-60(TB) leukemia) | TGI (HL-60(TB) leukemia) [µM] | TGI (HOP-92 NSCLC) [µM] | TGI (MCF7 breast) [µM] | TGI (SF-268 CNS) [µM] | TGI (SK-MEL-2 melanoma) [µM] | TGI (SK-OV-3 ovarian) [µM] | TGI (SN12C renal) [µM] | TGI (SNB-19 CNS) [µM] | TGI (HCC-2998 colon) [µM] | TGI (NCI-H23 lung) [µM] | GI50 (HCC-2998 colon) [µM] | GI50 (HOP-92 NSCLC) [µM] | GI50 (NCI-H23 lung) [µM] | GI50 (SK-MEL-2 melanoma) [µM] | GI50 (SK-OV-3 ovarian) [µM] | GI50 (MCF7 breast) [µM] | GI50 (SF-268 CNS) [µM]
COC(=O)[C@@H]1CC(C(C[N+](=O)[O-])c2ccc(O[Si](C)(C)C(C)(C)C)cc2)C(=O)N1C(=O)OC(C)(C)C (stereo not given in full) | > 100 µM and 26.2 µM | > 100 | > 100 µM and 46.2 µM | > 100 | > 100 | > 100 | > 100 | > 100 | > 100 | > 100 | > 100 |  |  |  |  |  |  |  |  | 
O=C1C(Cl)=C(Nc2ccc(S(=O)(=O)O)cc2)C(=O)c2ccccc21 |  | 75.6 |  | > 100 | 34.6 | 49.1 | > 100 | 59.6 |  |  | > 100 | > 100 | > 100 |  |  |  |  |  |  | 
O=C(Nc1nc2ccc([N+](=O)[O-])cc2s1)C(=O)C(C(=O)c1ccccc1F)C1OC(=O)c2ccccc21 (stereo not given) |  | 62.4 |  | 51.2 | > 100 |  | > 100 | > 100 | 93.7 | > 100 | > 100 | 84.2 | > 100 |  |  |  |  |  |  | 
Cc1cc(S(=O)(=O)Nc2nc3ccccc3nc2-c2cccc([N+](=O)[O-])c2)c(S)cc1Cl |  | 31.5 |  | 44.4 | 46.5 | 64.5 | 56.2 | 42.2 | 34 | 78.5 | 39.9 | 39.1 | 33.7 |  |  |  |  |  |  | 
COc1c(Br)cc2c(c1OC)C(Br)CCC(Br)(Br)C2=O (stereo not given) |  | 4.1 |  | 3.09 | 12.5 | 6.13 | 4.37 | 4.4 | 10.5 | 1.42 | 14.1 | 16.6 | 3.71 |  |  |  |  |  |  | 
CO/N=C(/C)c1ccc(NC(=O)CSc2nnc(-c3ccncc3)n2-c2ccccc2)cc1 | > 100 µM | > 100 | > 100 µM | > 100 | 6.07 |  |  | 55.1 | > 100 |  |  | > 100 | > 100 | > 100 | 2.32 | 4.24 | 11.1 | 3.34 |  | 
CN(C)CCCN1c2ccccc2Sc2ccc3ccccc3c21 |  | 10 |  | 0.0372 | 21 | 14.9 | 23.4 | 13.1 | 27.5 | 22.9 | 28.8 | 3.04 | 28.2 |  |  |  |  |  |  | 
O=C1OC2(CC1C1(O)C3CC4CC(C3)CC1C4)C1CC3CC(C1)CC2C3 (stereo not given) |  |  |  | > 100 |  |  | > 100 | > 100 |  | > 100 |  |  | > 100 |  |  |  |  |  |  | 
C=CC1(NC(=O)c2ccccc2)CCC(C(C)(C)C)CC1 (stereo not given) |  | 43.2 |  | 33 |  | > 83.5 | > 100 | 56.6 | > 100 | > 61.4 | > 100 | > 100 | > 85 |  |  |  |  |  |  | 
O=C(c1ccccc1)c1ccc2nc(-c3c(Cl)c(Cl)c(Cl)c(Cl)c3C(=O)N/N=C/c3ccc(Cl)cc3)[nH]c2c1 |  | > 100 |  | 21.1 | > 100 | 71.8 | > 100 | 72.4 | > 100 | > 100 | > 100 |  | > 100 |  |  |  |  |  |  | 
CC(=O)Oc1cc2c(cc1OC(C)=O)OCC(c1ccccc1)C2 (stereo not given) |  | 47 |  | 9.01 | 25.3 | 66.8 | 52.2 | 54.7 | 72.3 | 56.6 | 48.5 | 65.5 | 77.6 |  |  |  |  |  |  | 
CCN(CC)c1ccc2cc(C(=O)Nc3ccc4[nH]c(C(=O)N5C[C@@H](CCl)c6c5cc(OC(=O)Nc5ccccc5)c5[nH]cc(C)c65)cc4c3)oc2c1 | > 1000 µM | > 1000 | 125 µM | 624 | > 1000 | > 1000 | 742 | > 1000 |  | > 1000 | 758 | > 1000 | > 1000 |  |  | 230 | > 1000 |  | 68.8 | 133
OCCNCCN1CCN(CCCN2c3ccccc3Sc3ccc(C(F)(F)F)cc32)CC1 |  | 32.4 |  | > 100 |  | 39.8 | 44 | 37.5 | 77.9 | 33.9 | 49.2 | 44.7 | 51 |  |  |  |  |  |  | 
O=c1ssc(=Nc2ccccc2)n1-c1ccccc1 |  | 66.4 |  | 96.2 | 98.5 | 35.7 | 37.1 | 53.9 | > 100 | 41.1 | > 100 | > 100 | 50.2 |  |  |  |  |  |  | 
N#C[C@H](OC1OC(COC2OC(CO)C(O)C(O)C2O)C(O)C(O)C1O)c1ccccc1 (stereo not given in full) |  | > 250 | > 141 µM | > 141 | > 250 | > 250 | > 250 | > 250 | > 250 | > 250 | > 250 | > 250 | > 250 |  | > 250 |  |  |  |  | 
CCCc1c(-c2ccccc2)[nH]c2ccccc2c1=O |  | > 100 |  | > 100 | > 100 | > 100 | > 100 | 96.7 | > 100 | > 100 | > 100 | 65.4 | > 100 |  |  |  |  |  |  | 
O=C(CCl)NNC1=Nc2ccc(Cl)cc2SC1 |  | 3.47 |  | 3.3 | 3.02 | 7.62 | 3.92 | 14 | 16.7 | 4.07 | 26.4 | 9.97 | 6.27 |  |  |  |  |  |  | 
